Read-outs that look alike come from different tables or passages of the source.

The target in assay [1] is T1, Human CB1 receptor (Homo sapiens, UniProt P21554).
T1 construct: purchased Receptor Biology
Put plainly: hCB1 receptor binding (3H-CP55,940 displacement). How it is done:
Human CB1 receptor from Receptor Biology (hCB1) or human CB2 receptor from BioSignal (hCB2) membranes are thawed at 37° C., passed 3 times through a 25-gauge blunt-end needle, diluted in the cannabinoid binding buffer (50 mM Tris, 2.5 mM EDTA, 5 mM MgCl2, and 0.5 mg/mL BSA fatty acid free, pH 7.4) and aliquots containing the appropriate amount of protein are distributed in 96-well plates. The IC50 of the compounds of the invention at hCB1 and hCB2 are evaluated from 10-point dose-response curves done with ^3H-CP55,940 at 20000 to 25000 dpm per well (0.17-0.21 nM) in a final volume of 300 μl. The total and non-specific binding are determined in the absence and presence of 0.2 μM of HU210 respectively. The plates are vortexed and incubated for 60 minutes at room temperature, filtered through Unifilters GF/B (presoaked in 0.1% polyethyleneimine) with the Tomtec or Packard harvester using 3 mL of wash buffer (50 mM Tris, 5 mM MgCl2, 0.5 mg BSA pH 7.0). The filters are dried for 1 hour at 55° C. The radioactivity (cpm) is counted in a TopCount (Packard) after adding 65 μl/well of MS-20 scintillation liquid.
Based on the above assays, the dissociation constant (Ki) for a particular compound of the invention towards a particular receptor is determined using the following equation: […]
Wherein IC50 is the concentration of the compound of the invention at which 50% displacement has been observed;
[rad] is a standard or reference radioactive ligand concentration at that moment; and
Kd is the dissociation constant of the radioactive ligand towards the particular receptor.

Assay [2] deals with T1, Human CB1 receptor. Put plainly: hCB1 GTPγS binding. The note with it: for Emax: maximal stimulation defined by 10 μM Win 55,212-2. It is filed as biochemical. How it is done: Human CB1 receptor from Receptor Biology (hCB1) or human CB2 receptor membranes (BioSignal) are thawed at 37° C., passed 3 times through a 25-gauge blunt-end needle and diluted in the GTPγS binding buffer (50 mM Hepes, 20 mM NaOH, 100 mM NaCl, 1 mM EDTA, 5 mM MgCl2, pH 7.4, 0.1% BSA). The EC50 and Emax of the compounds of the invention are evaluated from 10-point dose-response curves done in 300 μl with the appropriate amount of membrane protein and 100000-130000 dpm of GTPg^35S per well (0.11-0.14 nM). The basal and maximal stimulated binding is determined in absence and presence of 1 μM (hCB2) or 10 μM (hCB1) Win 55,212-2 respectively. The membranes are pre-incubated for 5 minutes with 56.25 μM (hCB2) or 112.5 μM (hCB1) GDP prior to distribution in plates (15 μM (hCB2) or 30 μM (hCB1) GDP final). The plates are vortexed and incubated for 60 minutes at room temperature, filtered on Unifilters GF/B (presoaked in water) with the Tomtec or Packard harvester using 3 ml of wash buffer (50 mM Tris, 5 mM MgCl2, 50 mM NaCl, pH 7.0). The filters are dried for 1 hour at 55° C. The radioactivity (cpm) is counted in a TopCount (Packard) is after adding 65 μl/well of MS-20 scintillation liquid. Antagonist reversal studies are done in the same way except that (a) an agonist dose-response curve is done in the presence of a constant concentration of antagonist, or (b) an antagonist dose-response curve is done in the presence of a constant concentration of agonist.

[3] abbreviates: hCB1 membranes, 3H-CP55,940, Ki=IC50/(1+[rad]/Kd), read-out: Ki (hCB1).
The mark [4] stands for this setting: hCB1 membranes, GTPγ35S, read-out: EC50 (hCB1).

T1 sequence (P21554 whole entry): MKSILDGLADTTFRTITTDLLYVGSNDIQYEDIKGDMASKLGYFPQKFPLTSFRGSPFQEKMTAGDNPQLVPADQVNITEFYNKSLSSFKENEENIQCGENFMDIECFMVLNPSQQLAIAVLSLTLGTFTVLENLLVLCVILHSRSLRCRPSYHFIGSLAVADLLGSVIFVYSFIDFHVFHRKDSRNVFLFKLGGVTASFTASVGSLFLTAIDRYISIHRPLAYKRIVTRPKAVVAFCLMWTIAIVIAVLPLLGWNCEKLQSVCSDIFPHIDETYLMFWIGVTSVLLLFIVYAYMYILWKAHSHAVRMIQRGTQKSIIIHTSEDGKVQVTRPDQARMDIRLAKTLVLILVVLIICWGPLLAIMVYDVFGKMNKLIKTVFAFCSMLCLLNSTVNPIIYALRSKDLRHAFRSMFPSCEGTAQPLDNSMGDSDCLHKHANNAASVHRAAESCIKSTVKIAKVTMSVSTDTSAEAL

On to `Cc1ccc(C(=O)Nc2ccc[n+]([O-])c2C(=O)NCC2CCC2)c2ccccc12` [Example 2, N-(Cyclobutylmethyl)-3-[[(4-methyl-1-naphthalenyl)carbonyl]amino]-1-oxide-2-pyridinecarboxamide], for which, on Human CB1 receptor [1] (setting [3]), the Ki was determined as 18 nM. The EC50 at Human CB1 receptor [2] (setting [4]) is 167 nM. For the same compound, the maximal effect (Emax) on Human CB1 receptor [2] (hCB1 membranes) was found to be 106%.
`O=C(Nc1ccc[n+]([O-])c1C(=O)NCC1CCCCC1)c1cccc2ccccc12` [Example 7, N-(Cyclohexylmethyl)-3-[(1-naphthalenylcarbonyl)amino]-1-oxide-2-pyridinecarboxamide] gave a Ki at Human CB1 receptor [1] of 47 nM. This compound had an EC50 at Human CB1 receptor [2] of 506 nM. Further, at Human CB1 receptor [2] (hCB1 membranes), the Emax is 128%.
`Cc1ccc(C(=O)Nc2ccc[n+]([O-])c2C(=O)NCC2CCCCC2)c2ccccc12` [Example 8, N-(Cyclohexylmethyl)-3-[(4-methyl-1-naphthalenylcarbonyl)amino]-1-oxide-2-pyridinecarboxamide]: the inhibitory constant (Ki) on Human CB1 receptor [1] (setting [3]) was 42 nM. In addition, the EC50 at Human CB1 receptor [2] (setting [4]) turned out to be 191 nM. This compound showed an Emax on Human CB1 receptor [2] (hCB1 membranes) of 122%.
